Experimental findings from patent publication US20070203215A1, “Methods & Compositions For Enhancing Pharmaceutical Treatments” (Taiji Biomedical, Inc., priority 1999, published 2007) are described below.

Structures are written as SMILES.

Series [1] addresses P450 CYP3A4 (Homo sapiens, UniProt P08684). The series can be described thus: Metabolism by P450 CYP3A4. The series is classed as in vitro ADME. An excerpt:
Two enzymes primarily responsible for metabolism of paclitaxel are P450 CYP3A4 and CYP2C8. Some P-gp inhibitors are also metabolized by P450 CYP 3A4, leading to inhibition of paclitaxel metabolism. This may contribute to PK interactions with paclitaxel.

Series [2] relates to SW480. The series can be described thus: Cell proliferation assay. To be noted: Homo sapiens; Colorectal carcinoma SW480, P-gp Pos; read-out: Formula 2 compound IC50 (inhibition of growth). It is filed as cell-based. The procedure: (§1) Cell proliferation IC50s and MDR reversal EC50s were determined from 3-day dose-response curves carried out in triplicate in 96-well plates essentially as described by Monks et al. (J. Natl. Cancer Inst., 83:757-66, 1991). Cells were plated in standard growth medium at 2.5 or 5.0×10^4 per well (CCRF-CEM and CEM/VLB1000 respectively) or 5×10^3 per well (all other cell lines) in a final volume of 100 μl. After a 2 h incubation for non-adherent cells and overnight incubation for adherent cells, the initial cell density was determined by fluorescence readout of Alamar Blue metabolism. The compound of Formula 2, cytotoxic agents, or compound vehicles were added to duplicate plates and the incubation was continued for an additional 72 h. Final cell density was determined with Alamar Blue. In some experiments, a standard endpoint assay was used without analysis of initial cell density with Alamar Blue. Similar results were obtained with the two assays. EC50s were derived by nonlinear regression analysis assuming a sigmoidal dose-response using GraphPad Prism Software (San Diego, Calif.). Proliferation assays capable of measuring both cytostatic and cytotoxic responses were carried out as described herein with 15 non-transformed and transformed cell lines, including primary fibroblasts, non-transformed smooth muscle, leukemia, breast, colon, ovarian and uterine carcinoma cells (±P-gp expression). Although the compound of Formula 2 reversed P-gp-mediated MDR in the low nanomolar concentration range, the compound was non-cytotoxic by itself at doses up to 100 μM in all cell lines. […] IC50s for non-specific cytotoxicity were similar in matched cell lines plus and minus P-gp expression. […] If it were, some consistent degree of resistance would be expected in P-gp expressing cells.

Series [3] concerns CEM/VLB1000. The series can be described thus: Cell proliferation assay. The series is classed as cell-based. To be noted: Homo sapiens; Lymphoma CEM/VLB1000, P-gp Pos; read-out: Formula 2 compound IC50 (inhibition of growth). The method, then:
as §1

The subject of series [4] is SK/VLB1000. The series can be described thus: Cell proliferation assay. The series is classed as cell-based. To be noted: Homo sapiens; Ovarian carcinoma SK/VLB1000, P-gp Pos; read-out: Formula 2 compound IC50 (inhibition of growth). The procedure: as §1
The test system of series [5] is MES-SA. The series can be described thus: Cell proliferation assay. To be noted: Homo sapiens; Uterine carcinoma MES-SA, P-gp Neg; read-out: Formula 2 compound IC50 (inhibition of growth). It is filed as cell-based. The method, then: as §1
Series [6] relates to HCT-15. The series can be described thus: Cell proliferation assay. The series is classed as cell-based. The note with it: Homo sapiens; Colorectal carcinoma HCT-15, P-gp Pos; read-out: Formula 2 compound IC50 (inhibition of growth). The method, then: as §1
A short description of series [7]: Cell proliferation assay. It is filed as cell-based. To be noted: human, MDA/LCC6^MDR1 breast carcinoma cells (P-gp positive); Breast carcinoma MDA/LCC6^MDR1, P-gp Pos; read-out: Formula 2 compound IC50 (inhibition of growth). The procedure:
as §1

For series [8], the system named is HISM. The series can be described thus: Cell proliferation assay. To be noted: Homo sapiens; Smooth muscle HISM; read-out: Formula 2 compound IC50 (inhibition of growth). The series is classed as cell-based. The method, then: as §1
Series [9] has as its system MCF-7. The series can be described thus: Cell proliferation assay. The series is classed as cell-based. To be noted: Homo sapiens, MCF7; Breast carcinoma MCF-7, P-gp Neg; read-out: Formula 2 compound IC50 (inhibition of growth). The method, then: as §1
The subject of series [10] is CEM. The series can be described thus: Cell proliferation assay. The series is classed as cell-based. To be noted: Homo sapiens, CCRF-CEM; Lymphoma CEM, P-gp Neg; read-out: Formula 2 compound IC50 (inhibition of growth). The procedure: as §1
For series [11], the system named is SW620. The series can be described thus: Cell proliferation assay. To be noted: Homo sapiens, SW-620; Colorectal carcinoma SW620, P-gp Neg; read-out: Formula 2 compound IC50 (inhibition of growth). It is filed as cell-based. The procedure:
as §1

In series [12] the test system is HT-29. The series can be described thus: Cell proliferation assay. The series is classed as cell-based. The note with it: Homo sapiens; Colorectal carcinoma HT-29, P-gp Neg; read-out: Formula 2 compound IC50 (inhibition of growth). The method, then:
as §1

Series [13] concerns MDA/LCC6. The series can be described thus: Cell proliferation assay. The series is classed as cell-based. To be noted: Homo sapiens, LCC-6; Breast carcinoma MDA/LCC6, P-gp Neg; read-out: Formula 2 compound IC50 (inhibition of growth). The procedure: as §1
Series [14] has as its system SKOV3. The series can be described thus: Cell proliferation assay. The series is classed as cell-based. To be noted: Homo sapiens, SK-OV-3; Ovarian carcinoma SKOV3, P-gp Neg; read-out: Formula 2 compound IC50 (inhibition of growth). The procedure: as §1
Series [15] has as its system MCF-7/ADR. The series can be described thus: Cell proliferation assay. It is filed as cell-based. The note with it: Homo sapiens, NCI/ADR-RES; Breast carcinoma MCF-7/ADR, P-gp Pos; read-out: Formula 2 compound IC50 (inhibition of growth). The method, then:
as §1

Series [16] deals with CCD-986SK. The series can be described thus: Cell proliferation assay. The note with it: Homo sapiens; Primary fibroblast CCD-986SK; read-out: Formula 2 compound IC50 (inhibition of growth). It is filed as cell-based. The procedure: as §1

Chain of P450 CYP3A4 (P08684 whole entry): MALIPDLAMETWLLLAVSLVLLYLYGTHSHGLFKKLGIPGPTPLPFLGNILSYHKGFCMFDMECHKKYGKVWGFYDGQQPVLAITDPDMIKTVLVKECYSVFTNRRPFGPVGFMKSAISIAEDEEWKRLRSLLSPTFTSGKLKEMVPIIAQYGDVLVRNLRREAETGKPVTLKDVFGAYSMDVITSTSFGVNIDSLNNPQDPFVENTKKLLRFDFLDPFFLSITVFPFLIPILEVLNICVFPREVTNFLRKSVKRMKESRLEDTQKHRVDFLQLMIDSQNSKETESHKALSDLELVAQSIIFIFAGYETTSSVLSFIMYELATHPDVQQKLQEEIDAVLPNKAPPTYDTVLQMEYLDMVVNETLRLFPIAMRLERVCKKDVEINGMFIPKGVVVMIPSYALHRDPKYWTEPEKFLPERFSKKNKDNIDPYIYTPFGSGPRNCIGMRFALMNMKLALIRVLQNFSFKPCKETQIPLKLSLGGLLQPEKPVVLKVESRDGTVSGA

As to `CCOC/C=C/c1ccc(-c2nc(-c3ccc(NC(C)C)cc3)c(-c3ccc(NC(C)C)cc3)[nH]2)cc1` [Formula 2 compound], the “Metabolism by P450 CYP3A4” value in [1] is on record as “not metabolized”. The IC50 (usually the concentration needed to halve the response being measured) is > 100 µM in series [2]; 32 µM in series [3]; 15 µM in series [4]; 51 µM in series [5]; 6 µM in series [6]; > 100 µM in series [8]. The IC50 in series [9] was 30 µM; in [10], 38 µM; in series [11], > 100 µM; in series [12], 12 µM; in series [13], > 100 µM; in [14], 48 µM. The IC50 in series [15] is 68 µM; in series [16], > 100 µM. In series [7], the IC50 at 72 h is > 100 µM.
